Source: EP1880990A1, “NOVEL ORGANIC ELECTROLUMINESCENT MATERIAL, ORGANIC ELECTROLUMINESCENT ELEMENT EMPLOYING THE SAME, AND THIN-FILM-FORMING SOLUTION FOR ORGANIC ELECTROLUMINESCENCE” (IDEMITSU KOSAN CO., LTD., priority 2005, dated 2006)

Tests used:
[1] = Solubility in toluene; assay type: physicochemical; details: for Solubility (toluene): soluble in an amount of ... or more; for Preparation of 1 % by mass toluene solution: 1 % by mass in toluene
Text: A preparation of 1 % by mass toluene solution was tried employing Compound C below instead of Compound 1 in accordance with the same procedures as those conducted in Example 1.
A preparation of 1 % by mass toluene solution was tried employing Compound D below instead of Compound 1 in accordance with the same procedures as those conducted in Example 1.

[2] = Ionization potential; assay type: physicochemical

| SMILES | Solubility (toluene) [1] | Ionization potential [2] | Preparation of 1 % by mass toluene solution [1] |
| --- | --- | --- | --- |
| CCC(C)c1ccc(N(c2ccc(-c3ccc(N(c4ccccc4)c4ccc5c(c4)C(C)(C)c4ccccc4-5)cc3)cc2)c2ccc(-c3cccc(-c4ccc(N(c5ccc(-c6ccc(N(c7ccccc7)c7ccc8c(c7)C(C)(C)c7ccccc7-8)cc6)cc5)c5ccc(C(C)CC)cc5)cc4)c3)cc2)cc1 (centres unmarked) [Compound 3] | ≥ 1 wt % |  |  |
| CCCCCCCCC1(CCCCCCCC)c2cc(N(c3ccccc3)c3ccc(-c4ccc(N(c5ccccc5)c5ccc6c(c5)C(C)(C)c5ccccc5-6)cc4)cc3)ccc2-c2ccc(N(c3ccccc3)c3ccc(-c4ccc(N(c5ccccc5)c5ccc6c(c5)C(C)(C)c5ccccc5-6)cc4)cc3)cc21 [Compound 4] | ≥ 1 wt % |  |  |
| CCCCCCCCC1(CCCCCCCC)c2cc(N(c3ccccc3)c3ccc(-c4ccc(N(c5ccc(-c6ccccc6)cc5)c5ccc(-c6ccccc6)cc5)cc4)cc3)ccc2-c2ccc(N(c3ccccc3)c3ccc(-c4ccc(N(c5ccc(-c6ccccc6)cc5)c5ccc(-c6ccccc6)cc5)cc4)cc3)cc21 [Compound 10] | ≥ 5 wt % | 5.14 eV |  |
| CC1(C)c2ccccc2-c2ccc(N(c3ccccc3)c3ccc(-c4ccc(N(c5ccccc5)c5ccc(-c6cccc(-c7cccc(-c8ccc(N(c9ccccc9)c9ccc(-c%10ccc(N(c%11ccccc%11)c%11ccc%12c(c%11)C(C)(C)c%11ccccc%11-%12)cc%10)cc9)cc8)c7)c6)cc5)cc4)cc3)cc21 [Compound 9] | ≥ 1 wt % |  |  |
| CCC(C)c1ccc(N(c2ccc(-c3ccc(-c4cccc(-c5cccc(-c6ccc(-c7ccc(N(c8ccc(-c9ccc(N(c%10ccc(-c%11ccccc%11)cc%10)c%10ccc(-c%11ccccc%11)cc%10)cc9)cc8)c8ccc(C(C)CC)cc8)cc7)cc6)c5)c4)cc3)cc2)c2ccc(-c3ccc(N(c4ccc(-c5ccccc5)cc4)c4ccc(-c5ccccc5)cc4)cc3)cc2)cc1 (centres unmarked) [Compound 7] | ≥ 1 wt % |  |  |
| CC1(C)c2ccccc2-c2ccc(N(c3ccccc3)c3ccc(-c4ccc(N(c5ccccc5)c5ccc(-c6cccc(-c7ccc(N(c8ccccc8)c8ccc(-c9ccc(N(c%10ccccc%10)c%10ccc%11c(c%10)C(C)(C)c%10ccccc%10-%11)cc9)cc8)cc7)c6)cc5)cc4)cc3)cc21 [Compound 2] | ≥ 1 wt % |  |  |
| c1ccc(N(c2ccc(-c3ccc(N(c4ccccc4)c4cccc5ccccc45)cc3)cc2)c2cccc3ccccc23)cc1 [Compound C, reference compound] |  |  | did not dissolve in toluene |
| CCC(C)c1ccc(N(c2ccc(-c3ccc(-c4cccc(-c5ccc(-c6ccc(N(c7ccc(-c8ccc(N(c9ccccc9)c9ccccc9)cc8)cc7)c7ccc(C(C)CC)cc7)cc6)cc5)c4)cc3)cc2)c2ccc(-c3ccc(N(c4ccccc4)c4ccccc4)cc3)cc2)cc1 (centres unmarked) [Compound 8] | ≥ 1 wt % |  |  |
| c1ccc(-c2ccc(N(c3ccc(-c4ccccc4)cc3)c3ccc(-c4ccc(N(c5ccc(-c6ccccc6)cc5)c5ccc(-c6ccccc6)cc5)cc4)cc3)cc2)cc1 [Compound D, reference compound] |  |  | did not dissolve in toluene |
| c1ccc(N(c2ccc(-c3ccc(N(c4ccccc4)c4cccc5ccccc45)cc3)cc2)c2ccc(-c3cccc(-c4cccc(-c5ccc(N(c6ccccc6)c6ccc(-c7ccc(N(c8ccccc8)c8cccc9ccccc89)cc7)cc6)cc5)c4)c3)cc2)cc1 [Compound 5] | ≥ 1 wt % |  |  |
